Results reported in patent US20160081973A1, “ACTIVATOR OF MITOCHONDRIA” (FLORA CO., LTD., priority 2013, published 2016).

What was measured:
Type in all cases: cell-based, human
[1] = test system: HL60 cells; assay: Cell differentiation induction test, NBT reduction staining (differentiation into neutrophils); conditions: for differentiation ratio (ratio of NBT-stained cells): after 10 days of culture
Description: (§1) To each well of a 6-well plate, 1 mL of HL60 cells were plated at a concentration of 5×10^4 cells/mL, and a test substance at five serial concentrations (a 10-fold dilution series ranging from 10%) was added to the well at the same time as the plating. The cells in the plate were cultured for 5 days or 10 days under 5% […] at 37° C. The cell suspension in each well was recovered by centrifugation, and the number of cells, the NBT reducing capacity, and the esterase activity of the recovered cells were measured. In addition, changes in the karyotype of each cell was observed by Carrazzi's hematoxylin staining. The ratio of stained cells in each sample was measured to evaluate the differentiation induction capacity. The test was carried out in 5 replicates (n=5). A sample without addition of the test substance, and 0.1% ethyl alcohol (solvent control for the positive control) were used as negative controls, and retinoic acid (dissolved in ethyl alcohol; final concentration, 1 μM) and active vitamin D3 (dissolved in ethyl alcohol; final concentration, 10 nM) were used as positive controls. Details of each staining method are described below.
The concentration of the recovered cells was adjusted to 1×10^6 cells/mL with RPMI 1640 medium (SIGMA, R8758, serum-free), and an equal volume of NBT solution (PBS supplemented with 0.2% NBT and 20% FBS, which was used after filtration) was added thereto. TPA was added to the resulting mixture to a final concentration of 6 μM, and the mixture was then stirred. Thereafter, the mixture was left to stand at 37° C. for 30 minutes, and centrifuged at 1000 rpm for 5 minutes, followed by discarding the supernatant. Subsequently, the cells were resuspended in PBS, and applied onto a slide glass, followed by counting cells stained blue under the microscope.

[2] = test system: HL60 cells; assay: Cytotoxicity test (mitochondrial activity level, counting of viable cells with WST-8); conditions: 3 days of culture, FIG. 1
Description: HL60 cells were cultured using a test medium (RPMI 1640 medium, 10% FBS, antibiotic-free) to the logarithmic growth phase in a CO: incubator (5% Cq, 37° C.). 2) Cytotoxicity Test (Evaluation of the Toxicity Based on the Viability, that is, the Survival Rate or the Death Rate, of Cells) To each well of a 96-well plate, 0.1 mL of HL6O cells were plated at a concentration of 5×10^4 cells/mL, and a test substance (7 serial dilutions: a 10-fold dilution series ranging from 10%; the test substance was preliminarily sterilized by filtration) was added to the well at the same time. After 3 days of the culture, a viable cell assay reagent SF (final concentration, 10%) was added to the cell suspension culture liquid, and viable cells were counted. The test was carried out in 3 replicates (n=3). The viability of the cells was evaluated using a viable cell counting reagent SF (WST-8) based on measurement of the absorbance.

[3] = test system: HL60 cells; assay: DNA methylation level in HL60 cells; conditions: 10 days of culture, FIG. 7
[4] = test system: HL60 cells; assay: Cell differentiation induction test, esterase staining (differentiation into monocytes); conditions: final concentration 1 μM
Description: as §1
Esterase staining was carried out as follows using an esterase staining kit (manufactured by Muto Pure Chemicals Co., Ltd.). The concentration of the recovered cells was adjusted to 1×10^6 cells/mL with PBS. […]

[5] = test system: HL60 cells; assay: Counting of viable cells by trypan blue staining; conditions: positive control; solvent control 1.0×10^−5% DMSO; 5 days of culture; FIG. 8
Description: In each of T25 flasks, 5 mL of HL60 cells were seeded at 1×10^7 cells/flask. At the same time as the seeding, test substances (ethyl alcohol, retinoic acid, dimethyl sulfoxide, rotenone, SDW, and Examples 3 and 4) were fed to the flasks.
The addition of Example 3 to the medium was carried out after its sterilization by filtration. In Example 4, 10 mL of the test substance was warmed at 60° C. to evaporate the whole solvent, and 10 mL of sterile water was newly added thereto to dissolve the resultant. The resulting solution was sterilized by filtration, and then added to the medium. The retinoic acid to be added was provided as a concentrated solution containing retinoic acid at a concentration of 100 mM in ethyl alcohol, and the rotenone to be added was provided as a concentrated solution containing rotenone at a concentration of 100 mM in DMSO. […]
To 50 μL of a cell suspension culture liquid, 50 μL of a trypan blue solution was added, and the reaction was allowed to proceed for several minutes. Under the microscope, unstained cells and stained cells were counted using a hemocytometer. The number of dead cells (stained cells) per total number of cells was determined to calculate the number of live cells (cells/mL) and the dead cell ratio (%).

`C=C1/C(=C\C=C2/CCC[C@]3(C)[C@@H]([C@H](C)CCCC(C)(C)O)CC[C@@H]23)C[C@@H](O)C[C@@H]1O` [active vitamin D3, reference compound] was tested, and the “differentiation ratio (ratio of NBT-stained cells)” value ([1]; final concentration 10 nM, decreased by half) was 4%.

With `O=c1c(O)c(-c2ccc(O)cc2)oc2cc(O)cc(O)c12` [kaempferol] the “mitochondrial activity (absorbance, viable cell count)” value ([2]; concentration 0.1% (30 ng/mL=0.03 μg/mL) to 10% (300 μg/mL)) was “increased”, the “mitochondrial activity (absorbance, viable cell count)” value ([2]; concentration 3.2×10^−4% to 0.032%) was “suppressed” and the “DNA methylation level in the HL60 cells” value ([3]; concentration 0.001%) was “increased”. The “DNA methylation level in the HL60 cells” value ([3]; concentration 10% (300 μg/mL)) was “decreased”, the “differentiation ratio (ratio of NBT-stained cells)” value ([1]; 300 μg) was 3% and the “differentiation ratios (NBT-stained cells) on Day 10 of the culture, change” value ([1]; Day 10 of the culture, FIG. 4) was “decreased”. For the same molecule, the “differentiation ratio (NBT-stained cells), trend” value ([1]; after 5 days of culture, FIG. 3) was “concentration-dependent improvement”.

`CC1=C(/C=C/C(C)=C/C=C/C(C)=C/C(=O)O)C(C)(C)CCC1` [retinoic acid] was tested, and the “differentiation into monocytes (ratio of esterase-stained cells)” value ([4]; Day 5 of the culture) was 2%, the “differentiation into monocytes (ratio of esterase-stained cells)” value ([4]; Day 10 of the culture) was 14% and the “differentiation ratio (ratio of NBT-stained cells)” value ([1]; final concentration 1 μM) was 68%.

With `C=C(C)[C@H]1Cc2c(ccc3c2O[C@@H]2COc4cc(OC)c(OC)cc4[C@@H]2C3=O)O1` [rotenone] the “viable cell count by trypan blue staining versus solvent control” value [5] was “decreased to about half”.
